Assay results reported in patent publication US20150315241A1, “Antibiotic Peptides” (priority 2007, published 2015).
Values after ≈ are worked out from the molar mass of the structure shown. Where a SMILES comes first, the peptide text is derived from it. [ ]: non-standard residue; d: D form. Arg(NO2) = N=C(NCCC[C@H](N)C(=O)O)N[N+](=O)[O-]; NMeR = CN[C@@H](CCCNC(=N)N)C(=O)O; Orn = NCCC[C@H](N)C(=O)O

Experiments:
[1] = tested on: E. coli BL 21 AI; experiment: Growth inhibition assay (MIC); format: cell-based, Escherichia coli; conditions: 1% TSB, 37° C., 20 hrs
Method: (§1) The minimal inhibition concentrations (MIC) of the apidaecin-derived peptides and peptide-derivatives were determined by a growth inhibition assay using a serial peptide dilution in sterilized round-bottom 96-well plates (polystyrene, U-bottom, Greiner Bio-One GmbH) with a final volume of 100 μL per well. The bacteria, e.g., E. coli BL21 A1, were grown in nutrient broth (NB, Carl Roth GmbH+Co. KG, Karlsruhe, Germany) at 37° C. over night. To each well of the 96-well plate, 50 μL of the overnight culture adjusted to 5×10^6 CFU/mL in 1% TSB were added. Lyophilized peptides and peptidomimetics were dissolved in 1% TSB (tryptic soy broth) or water to give a final concentration of 250 μg/mL. Fifty μL of the peptide or peptidomimetics solution were added to the first well of a row on the plate and mixed. Fifty μL of the first well containing the peptide solution were transferred to the second well, mixed and again 50 μL transferred to the next well and so on. Thereby, a two-fold dilution series was obtained starting at 250 μg/mL in the first well down to 120 ng/mL in the 12th well of a row giving a final peptide or peptidomimetics concentration from 125 μg/mL (well 1) to 60 ng/mL (well 12). Plates were incubated at 37° C. for 20 hrs. The absorbance was measured at 595 nm using a TECAN micro plate spectrophotometer (Tecan, Germany). All peptides and peptidomimetics were measured in triplicates. Sterilized water was used as a negative control.
(§2) The bacteria strains were tested: • Eschericha coli 1103, 10233, BL 21 AI, DC 2, • Klebsiella pneumoniae 681, • Micrococcus luteus ATCC 10240, • Mycobacterium vaccae • Bactillus subtillis 347.

[2] = tested on: M. luteus ATCC 10240; format: cell-based, Micrococcus luteus; conditions: ATCC 10240, 20 h
Method: as §1, §2

Compound	MIC E. coli BL 21 AI [1]	MIC M. luteus ATCC 10240 [2]
CC[C@H](C)[C@H](NC(=O)[C@H](Cc1ccc(O)cc1)NC(=O)[C@@H](NC(=O)[C@@H]1CCCN1C(=O)[C@H](CCCNC(=N)N)NC(=O)[C@H](CC(N)=O)NC(=O)[C@H](CC(N)=O)NC(=O)[C@H](CCCN)NC(C)=O)C(C)C)C(=O)N1CCC[C@H]1C(=O)N[C@@H](CCCNC(=N)N)C(=O)N1CCC[C@H]1C(=O)N[C@@H](CCCNC(=N)N)C(=O)N1CCC[C@H]1C(=O)N1CCC[C@H]1C(=O)N[C@@H](Cc1c[nH]cn1)C(=O)N1CCC[C@H]1C(=O)N(C)[C@@H](CCCNC(=N)N)C(=O)N[C@@H](CC(C)C)C(N)=O [compound 153] (Ac-[Orn]NNRPVYIPRPRPPHP[NMeR]L-NH2)	16 µg/mL (≈ 7.12 µM)	32 µg/mL (≈ 14.2 µM)
CC[C@H](C)[C@H](NC(=O)[C@H](Cc1ccc(O)cc1)NC(=O)[C@@H](NC(=O)[C@@H]1CCCN1C(=O)[C@H](CCCNC(=N)N)NC(=O)[C@H](CC(N)=O)NC(=O)[C@H](CC(N)=O)NC(=O)[C@H](CCCN)NC(C)=O)C(C)C)C(=O)N1CCC[C@H]1C(=O)N[C@@H](CCCNC(=N)N)C(=O)N1CCC[C@H]1C(=O)N[C@@H](CCCNC(=N)N)C(=O)N1CCC[C@H]1C(=O)N1CCC[C@H]1C(=O)N[C@@H](Cc1c[nH]cn1)C(=O)N1CCC[C@H]1C(=O)N[C@@H](CCCNC(N)=N[N+](=O)[O-])C(=O)N[C@@H](CC(C)C)C(N)=O [compound 154] (Ac-[Orn]NNRPVYIPRPRPPHP[Arg(NO2)]L-NH2)	16 µg/mL (≈ 7.02 µM)	32 µg/mL (≈ 14 µM)
H-GNNRPVYIAQPRPPHPAL-NH2 [compound 136]	>125 µg/mL	>125 µg/mL
H-GNNRPVYIAQPRPPHPRL-NH2 [compound 140]	>125 µg/mL	125 µg/mL
H-GNNRPVYIPQPRPPHPAL-NH2 [compound 139]	>125 µg/mL	>125 µg/mL
H-GNNRPVYIPQPRPPHPR-OH [compound 144]	>125 µg/mL	>125 µg/mL
H-GNNRPVYIPRPRPPHPRLV-OH [compound 69]	7.81 µg/mL	0.24 µg/mL
H-NNRPVYIPQPRPPHPRI-NH2 [compound 92]	3.91 µg/mL	31.25 µg/mL
H-RPVYIPQPRPPHPRL-NH2 [compound 142]	125 µg/mL	125 µg/mL
